Measured values published in PubChem BioAssay AID1259407 (Chemical Carcinogenesis Research Information System (CCRIS), 2018).
Activity calls are given as the source filed them. The rule behind the calls is not given here.

Tested on: CCRIS mutagenicity, Ames/micronucleus/aberration tests
Test: CCRIS mutagenicity studies
[1] = Test System: AMES SALMONELLA TYPHIMURIUM, Strain/Indicator: TA97, Metabolic Activation: HAMSTER, LIVER, S-9, AROCLOR 1254 (10 OR 30%), Method: PREINCUBATION
[2] = Test System: AMES SALMONELLA TYPHIMURIUM, Strain/Indicator: TA97, Metabolic Activation: NONE, Method: PREINCUBATION
[3] = Test System: AMES SALMONELLA TYPHIMURIUM, Strain/Indicator: TA97, Metabolic Activation: RAT, LIVER, S-9, AROCLOR 1254 (10 OR 30%), Method: PREINCUBATION
[4] = Test System: AMES SALMONELLA TYPHIMURIUM, Strain/Indicator: TA98, Metabolic Activation: HAMSTER, LIVER, S-9, AROCLOR 1254 (10 OR 30%), Method: PREINCUBATION
[5] = Test System: AMES SALMONELLA TYPHIMURIUM, Strain/Indicator: TA98, Metabolic Activation: NONE, Method: PREINCUBATION
[6] = Test System: AMES SALMONELLA TYPHIMURIUM, Strain/Indicator: TA98, Metabolic Activation: RAT, LIVER, S-9, AROCLOR 1254 (10 OR 30%), Method: PREINCUBATION
[7] = Test System: AMES SALMONELLA TYPHIMURIUM, Strain/Indicator: TA100, Metabolic Activation: NONE, Method: PREINCUBATION
[8] = Test System: AMES SALMONELLA TYPHIMURIUM, Strain/Indicator: TA100, Metabolic Activation: RAT, LIVER, S-9, AROCLOR 1254 (10 OR 30%), Method: PREINCUBATION
[9] = Test System: AMES SALMONELLA TYPHIMURIUM, Strain/Indicator: TA1535, Metabolic Activation: HAMSTER, LIVER, S-9, AROCLOR 1254 (10 OR 30%), Method: PREINCUBATION
[10] = Test System: AMES SALMONELLA TYPHIMURIUM, Strain/Indicator: TA1535, Metabolic Activation: NONE, Method: PREINCUBATION
[11] = Test System: AMES SALMONELLA TYPHIMURIUM, Strain/Indicator: TA1535, Metabolic Activation: RAT, LIVER, S-9, AROCLOR 1254 (10 OR 30%), Method: PREINCUBATION
[12] = Test System: AMES SALMONELLA TYPHIMURIUM, Strain/Indicator: TA100, Metabolic Activation: HAMSTER, LIVER, S-9, AROCLOR 1254 (10%), Method: PREINCUBATION
[13] = Test System: AMES SALMONELLA TYPHIMURIUM, Strain/Indicator: TA98, Metabolic Activation: NONE, Method: STANDARD PLATE
[14] = Test System: AMES SALMONELLA TYPHIMURIUM, Strain/Indicator: TA100, Metabolic Activation: NONE, Method: STANDARD PLATE
[15] = Test System: AMES SALMONELLA TYPHIMURIUM, Strain/Indicator: TA100, Metabolic Activation: RAT, LIVER, S-9, AROCLOR 1254, Method: STANDARD PLATE

COC(=O)C1=C(C)NC(C)=C(C(=O)OC)C1c1ccccc1[N+](=O)[O-]
mutagenic call [1]: inactive; negative
mutagenic call [2]: inactive; negative
mutagenic call [3]: inactive; negative
mutagenic call [4]: inactive; negative
mutagenic call [5]: inactive; negative
mutagenic call [6]: inactive; negative
mutagenic call (Test System: AMES SALMONELLA TYPHIMURIUM, Strain/Indicator: TA100, Metabolic Activation: HAMSTER, LIVER, S-9, AROCLOR 1254 (10 OR 30%), Method: PREINCUBATION): inactive; negative
mutagenic call [7]: inactive; negative
mutagenic call [8]: inactive; negative
mutagenic call [9]: inactive; negative
mutagenic call [10]: inactive; negative
mutagenic call [11]: inactive; negative

CC(=O)Nc1ccc(C)cc1
mutagenic call [1]: inactive; negative
mutagenic call [2]: inactive; negative
mutagenic call [3]: inactive; negative
mutagenic call [4]: inactive; negative
mutagenic call [5]: inactive; negative
mutagenic call [6]: inactive; negative
mutagenic call [12]: inactive; negative
mutagenic call (Test System: AMES SALMONELLA TYPHIMURIUM, Strain/Indicator: TA100, Metabolic Activation: HAMSTER, LIVER, S-9, AROCLOR 1254 (30%), Method: PREINCUBATION): inactive; negative
mutagenic call [7]: inactive; negative
mutagenic call [8]: inactive; negative
mutagenic call [9]: inactive; negative
mutagenic call [10]: inactive; negative
mutagenic call [11]: inactive; negative

COc1ccc(C=O)cc1OC
mutagenic call (Test System: AMES SALMONELLA TYPHIMURIUM, Strain/Indicator: TA98, Metabolic Activation: HAMSTER, LIVER, S-9, AROCLOR 1254 (10%), Method: PREINCUBATION): inactive; negative
mutagenic call [5]: inactive; negative
mutagenic call [13]: inactive; negative
mutagenic call (Test System: AMES SALMONELLA TYPHIMURIUM, Strain/Indicator: TA98, Metabolic Activation: RAT, LIVER, S-9, AROCLOR 1254 (10%), Method: PREINCUBATION): inactive; negative
mutagenic call [12]: inactive; negative
mutagenic call [7]: inactive; negative
mutagenic call [14]: inactive; negative
mutagenic call (Test System: AMES SALMONELLA TYPHIMURIUM, Strain/Indicator: TA100, Metabolic Activation: RAT LIVER S-9, AROCLOR 1254, Method: PREINCUBATION): inactive; negative
mutagenic call (Test System: AMES SALMONELLA TYPHIMURIUM, Strain/Indicator: TA100, Metabolic Activation: RAT, LIVER, S-9, AROCLOR 1254 (10%), Method: PREINCUBATION): inactive; negative
mutagenic call (Test System: AMES SALMONELLA TYPHIMURIUM, Strain/Indicator: TA102, Metabolic Activation: NONE, Method: PREINCUBATION): inactive; negative
mutagenic call (Test System: AMES SALMONELLA TYPHIMURIUM, Strain/Indicator: TA102, Metabolic Activation: RAT LIVER S-9, AROCLOR 1254, Method: PREINCUBATION): inactive; negative
mutagenic call (Test System: AMES SALMONELLA TYPHIMURIUM, Strain/Indicator: TA104, Metabolic Activation: NONE, Method: PREINCUBATION): inactive; negative
mutagenic call (Test System: AMES SALMONELLA TYPHIMURIUM, Strain/Indicator: TA104, Metabolic Activation: RAT LIVER S-9, AROCLOR 1254, Method: PREINCUBATION): inactive; negative
mutagenic call (Test System: AMES SALMONELLA TYPHIMURIUM, Strain/Indicator: TA1535, Metabolic Activation: HAMSTER, LIVER, S-9, AROCLOR 1254 (10%), Method: PREINCUBATION): inactive; negative
mutagenic call [10]: inactive; negative
mutagenic call (Test System: AMES SALMONELLA TYPHIMURIUM, Strain/Indicator: TA1535, Metabolic Activation: RAT, LIVER, S-9, AROCLOR 1254 (10%), Method: PREINCUBATION): inactive; negative
mutagenic call (Test System: AMES SALMONELLA TYPHIMURIUM, Strain/Indicator: TA1537, Metabolic Activation: HAMSTER, LIVER, S-9, AROCLOR 1254 (10%), Method: PREINCUBATION): inactive; negative
mutagenic call (Test System: AMES SALMONELLA TYPHIMURIUM, Strain/Indicator: TA1537, Metabolic Activation: NONE, Method: PREINCUBATION): inactive; negative
mutagenic call (Test System: AMES SALMONELLA TYPHIMURIUM, Strain/Indicator: TA1537, Metabolic Activation: RAT, LIVER, S-9, AROCLOR 1254 (10%), Method: PREINCUBATION): inactive; negative
mutagenic call (Test System: E. COLI, Strain/Indicator: CM561 LEXA, Metabolic Activation: NONE, Method: STANDARD PLATE): inactive; negative
mutagenic call (Test System: E. COLI, Strain/Indicator: CM611 UVRA/LEXA, Metabolic Activation: NONE, Method: STANDARD PLATE): inactive; negative
mutagenic call (Test System: E. COLI, Strain/Indicator: WP2 UVRA, Metabolic Activation: NONE, Method: STANDARD PLATE): inactive; negative

CC(Br)C(=O)N(C)Cc1ccccc1 (stereo unspecified)
mutagenic call (Test System: AMES SALMONELLA TYPHIMURIUM, Strain/Indicator: TA100, Metabolic Activation: MOUSE, LIVER, S-9, AROCLOR 1254, Method: STANDARD PLATE): inactive; negative
mutagenic call [14]: inactive; negative

O=C(Cn1ccnc1[N+](=O)[O-])NCc1ccccc1
mutagenic call [14]: active; positive
mutagenic call [15]: active; positive

OC[C@H]1O[C@@H](Oc2ccc(O)cc2)[C@H](O)[C@@H](O)[C@@H]1O
mutagenic call (Test System: Chinese hamster lung cells, Strain/Indicator: CHL (HPRT)/6-Thioguanine, Metabolic Activation: None, Method: Standard Plate): inactive; negative

Oc1cc2ccccc2c2ccc3ccccc3c12
mutagenic call [13]: inactive; negative
mutagenic call (Test System: AMES SALMONELLA TYPHIMURIUM, Strain/Indicator: TA98, Metabolic Activation: RAT, LIVER, S-9, AROCLOR 1254, Method: STANDARD PLATE): inactive; negative
mutagenic call [14]: inactive; negative
mutagenic call [15]: inactive; negative
